Measurements reported in US5849560A, “Proteases causing degradation of amyloid β-protein precursor” (priority 1993, dated 1998).
Non-standard residues stand in square brackets, D forms with d. Residues, ends and D or L forms follow the SMILES beside them. *: point of attachment. Sta = CC(C)C[C@H](N)[C@@H](O)CC(=O)O; Isovaleryl = CC(C)CC(=O)*; Cbz = O=C(OCc1ccccc1)*; CH2F = FC*

Assays:
[1] = biological target: T1, "Met cut" metalloprotease (AD metalloprotease) purified from AD brain homogenate (Homo sapiens, UniProt P52888); experiment: Effect of additives on synthetic peptide substrate (P1) degrading activity of the purified Met cut metalloprotease; assay type: biochemical; details: for effect on metalloprotease activity (in words): concentrations as in Table II, divalent ions at 2 mM; for remaining activity at 5000 µM: reagent conc. 5.0 mM; for remaining activity at 150 µM: reagent conc. 0.15 mM; for remaining activity at 140 µM: reagent conc. 0.14 mM; for remaining activity at 200 µM: reagent conc. 0.2 mM
T1 construct: isolate and purify an AD metalloprotease from AD brain homogenate; from tissue; host or cells: brain of Alzheimer's disease patients
T1 sequence (P52888 whole entry): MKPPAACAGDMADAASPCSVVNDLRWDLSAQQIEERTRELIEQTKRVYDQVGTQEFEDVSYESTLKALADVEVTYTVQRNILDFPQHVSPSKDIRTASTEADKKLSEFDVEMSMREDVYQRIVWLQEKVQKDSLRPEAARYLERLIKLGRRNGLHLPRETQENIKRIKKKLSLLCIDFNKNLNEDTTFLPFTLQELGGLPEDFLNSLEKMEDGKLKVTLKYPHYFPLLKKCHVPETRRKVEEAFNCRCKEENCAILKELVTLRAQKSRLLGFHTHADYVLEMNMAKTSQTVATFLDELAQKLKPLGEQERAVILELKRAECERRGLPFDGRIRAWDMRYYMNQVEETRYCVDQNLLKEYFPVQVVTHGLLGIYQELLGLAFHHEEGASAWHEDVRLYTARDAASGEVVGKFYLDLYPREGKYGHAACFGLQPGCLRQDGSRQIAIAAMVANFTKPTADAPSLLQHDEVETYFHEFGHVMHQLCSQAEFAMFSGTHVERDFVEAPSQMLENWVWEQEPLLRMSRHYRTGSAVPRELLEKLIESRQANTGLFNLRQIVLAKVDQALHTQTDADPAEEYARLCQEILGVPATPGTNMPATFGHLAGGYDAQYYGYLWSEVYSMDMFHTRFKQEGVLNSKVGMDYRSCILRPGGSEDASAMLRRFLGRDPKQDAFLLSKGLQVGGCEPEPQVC
Description: The different protease fractions are monitored for proteolytic activity against iodinated peptide "P1". Incubations are carried out at 37° C. in 50 mM Tris-Cl, pH 7.4, in the presence of 1 mM MgCl2 +1 mM DTT. The proteolytic products are separated by TLC on cellulose microcrystalline plates, using n-butanol:pyridine:acetic acid:water, 15:10:3:12 (v/v), as a solvent, followed by autoradiography. […] ID NO. 1] to His-Ser-Glu-Val-Lys-Met [SEQ, ID NO. 2] were quantified with a Molecular Dynamics ImageQuant™ v3.0 scanning densitometer or a Bioscan system 200 imaging scanner. […] One unit of Met cut metalloprotease activity under these conditions was defined as converting 1 μg of P1 to His-Ser-Glu-Val-Lys-Met [SEQ. ID NO. 2] in 1 min.
Referring now to Table II, the effects of various additives on the activity degrading the synthetic substrate (P1) were examined. The metalloprotease sample as incubated with the appropriate amount of additive and assayed for remaining activity, as described above. Control reactions with no reagent, or containing only the solvent of the reagent were always included. Reactions were allowed to proceed for 45 min at 4° C., except E-64 which was incubated for 15 or 30 min (b and c respectively) and iodoacetamide was incubated at 37° C. for 30 min.
Stock solutions of phenylmethylsulfonyl fluoride (PMSF)", E-64, 1,10 phenanthroline, calpain inhibitor, Z-Phe-Phe-CH2 F (Enzyme Systems Products, Livermore, Calif.) were dissolved in ethanol. […] ZINCOV (Calbiochem, Calif.) and phosphoramidon (Sigma, USA), were also dissolved in water. Pepstatin A was dissolved in methanol. The susceptibility of the protease activity to various divalent cations was determined by including metals at a final concentration of 2 mM in the assay reaction mixture.

[2] = test system: Ca2+ activated serine protease (serine AD proteolytic factor) from AD brain; experiment: Peptide degradation assay (125I-P1, TLC) with the serine AD proteolytic factor and inhibitors; assay type: biochemical, human
[3] = reagent conc. 1.0 mM, 45 min at 4° C.
[4] = concentrations as in Table II (iodoacetamide 8.0 mM, leupeptin 0.2 mM), read-out: partial inhibitory effect on the protease

For `O[C@H](CS)[C@H](O)CS` (racemic) [Dithiothreitol, dithiothreitol], the “effect on metalloprotease activity (in words)” value [1] was “required for the activity”, the “% Activity Remaining” value ([1]; reagent conc. 0.0 mM) was 0% and the remaining activity at 1000 µM [1, 3] was 100%. For the same molecule, the remaining activity at 2500 µM ([1]; reagent conc. 2.5 mM) was 70.8% and the remaining activity at 5000 µM ([1]; 45 min at 4° C.) was 25.5%.

With `c1cnc2c(c1)ccc1cccnc12` [1,10 phenanthroline] the “effect on metalloprotease activity (in words)” value [1] was “Strong inhibition” and the remaining activity at 4000 µM ([1]; reagent conc. 4.0 mM, 45 min at 4° C.) was 0%.

`CC(C)C[C@H](NC(=O)[C@@H](O)[C@H](N)Cc1ccccc1)C(=O)O` [Bestatin] was tested, and the remaining activity at 2 µM ([1]; reagent conc. 0.002 mM, 45 min at 4° C.) was 60%.

In the case of `C[C@H](NC(=O)[C@H](C)NC(CCc1ccccc1)C(=O)O)C(=O)N[C@@H](Cc1ccccc1)C(=O)Nc1ccc(C(=O)O)cc1` (stereo partly drawn) [CPP-Ala-Ala-Phe-pAB], the “effect on metalloprotease activity (in words)” value [1] is reported as “strongly inhibited”, the remaining activity at 15 µM ([1]; reagent conc. 0.015 mM, 45 min at 4° C.) is reported as 47.5% and the remaining activity at 150 µM ([1]; 45 min at 4° C.) is reported as 28%.

For `CC(C)CC(NC(=O)C1OC1C(=O)O)C(=O)NCCCCN=C(N)N` (stereo not shown) [E-64], the “effect on metalloprotease activity (in words)” value [1] was “less”, the remaining activity at 140 µM ([1]; incubated 15 min (b)) was 57.5% and the remaining activity at 140 µM ([1]; incubated 30 min (c)) was 27.3%.

`O=C(O)CN(CCOCCOCCN(CC(=O)O)CC(=O)O)CC(=O)O` [EGTA] was tested, and the “effect on cleavage of 125I-P1 by the serine AD proteolytic factor (in words)” value (shortened to “effect on cleavage of 125I-P1”) [2] was “prevent cleavage”, the “effect on metalloprotease activity (in words)” value [1] was “Strong inhibition” and the remaining activity at 7500 µM ([1]; reagent conc. 7.5 mM, 45 min at 4° C.) was 0%.

For `O=C(O)c1cc[c]([Hg][OH])cc1` [Hydroxymercurybenzoate, hydroxymercurybenzoate], the “effect on metalloprotease activity (in words)” value [1] was “strong inhibition”, the “% Activity Remaining” value ([1]; reagent conc. 1.6 mM, 45 min at 4° C.) was 0% and the “reversal of inhibition by the reducing agent (DTT)” value ([1]; stoichiometrically increasing concentrations of DTT) was “readily reversed”.

`NC(=O)CI` [Iodoacetamide] showed an inhibition at 8000 µM [1, 4] of 34% and a remaining activity at 8000 µM ([1]; reagent conc. 8.0 mM, 37° C. for 30 min) of 66%.

`CC(=O)N[C@@H](CC(C)C)C(=O)N[C@@H](CC(C)C)C(=O)N[C@H](C=O)CCCNC(=N)N` [Leupeptin] gave an inhibition at 200 µM [1, 4] of 36.3% and a remaining activity at 200 µM ([1]; 45 min at 4° C.) of 63.7%.

For `CCN1C(=O)C=CC1=O` [N-ethylmaleimide], the “effect on metalloprotease activity (in words)” value [1] was “strong inhibition” and the remaining activity at 5000 µM ([1]; 45 min at 4° C.) was 7.9%.

For `O=S(=O)(F)Cc1ccccc1` [PMSF, phenylmethylsulfonyl fluoride], the “% Activity Remaining” value ([1]; reagent conc. 7.0 mM, 45 min at 4° C.) was 100%.

In the case of `CC(C)CC(=O)N[C@H](C(=O)N[C@H](C(=O)N[C@@H](CC(C)C)[C@@H](O)CC(=O)N[C@@H](C)C(=O)N[C@@H](CC(C)C)[C@@H](O)CC(=O)O)C(C)C)C(C)C` [Pepstatin A] (Isovaleryl-VV[Sta]A[Sta]-OH), the remaining activity at 150 µM ([1]; 45 min at 4° C.) is reported as 100%.

In the case of `CC(C)C[C@H](NP(=O)(O)O[C@@H]1O[C@@H](C)[C@H](O)[C@@H](O)[C@H]1O)C(=O)N[C@@H](Cc1c[nH]c2ccccc12)C(=O)O` [Phosphoramidon], the remaining activity at 1000 µM [1, 3] is reported as 89.5%.

With `O=C(N[C@@H](Cc1ccccc1)C(=O)N[C@@H](Cc1ccccc1)C(=O)CF)OCc1ccccc1` [Z-Phe-Phe-CH2F] (Cbz-Phe-Phe-CH2F) the remaining activity at 200 µM ([1]; 45 min at 4° C.) was 82.7%.

In the case of `CC(C)CC(C(=O)NO)C(=O)N[C@@H](C)C(=O)NCC(N)=O` (stereo partly shown) [ZINCOV], the “effect on metalloprotease activity (in words)” value [1] is reported as “Strong inhibition” and the “% Activity Remaining” value [1, 3] is reported as 42.4%.

For Aprotinin, the “% Activity Remaining” value ([1]; reagent conc. 0.03 mM, 45 min at 4° C.) was 100%.

albumin was tested, and the “effect on cleavage of 125I-P1” value [2] was “did not influence the activity”.

B1: protease nexin 1: protease nexin 1 (protein, UniProt P07093 20-398, looked up)
Glia-derived nexin: SHFNPLSLEELGSNTGIQVFNQIVKSRPHDNIVISPHGIASVLGMLQLGADGRTKKQLAMVMRYGVNGVGKILKKINKAIVSKKNKDIVTVANAVFVKNASEIEVPFVTRNKDVFQCEVRNVNFEDPASACDSINAWVKNETRDMIDNLLSPDLIDGVLTRLVLVNAVYFKGLWKSRFQPENTKKRTFVAADGKSYQVPMLAQLSVFRCGSTSAPNDLWYNFIELPYHGESISMLIALPTESSTPLSAIIPHISTKTIDSWMSIMVPKRVQVILPKFTAVAQTDLKEPLKVLGITDMFDSSKANFAKITTGSENLHVSHILQKAKIEVSEDGTKASAATTAILIARSSPPWFIVDRPFLFFIRHNPTGAVLFMGQINKP
With B1 the “effect on cleavage of 125I-P1” value [2] was “did not influence the activity”.

B2: ACT: serine protease inhibitor α1-antichymotrypsin (Calbiochem) (protein, UniProt P01011 24-423, looked up)
Alpha-1-antichymotrypsin: HPNSPLDEENLTQENQDRGTHVDLGLASANVDFAFSLYKQLVLKAPDKNVIFSPLSISTALAFLSLGAHNTTLTEILKGLKFNLTETSEAEIHQSFQHLLRTLNQSSDELQLSMGNAMFVKEQLSLLDRFTEDAKRLYGSEAFATDFQDSAAAKKLINDYVKNGTRGKITDLIKDLDSQTMMVLVNYIFFKAKWEMPFDPQDTHQSRFYLSKKKWVMVPMMSLHHLTIPYFRDEELSCTVVELKYTGNASALFILPDQDKMEEVEAMLLPETLKRWRDSLEFREIGELYLPKFSISRDYNLNDILLQLGIEEAFTSKADLSGITGARNLAVSQVVHKAVLDVFEEGTEASAATAVKITLLSALVETRTIVRFNRPFLMIIVPTDTQNIFFMSKVTNPKQA
In the case of B2, the “effect on cleavage of 125I-P1” value [2] is reported as “inhibited cleavage”.

B3: Soybean Trypsin Inhibitor: Soybean Trypsin Inhibitor, protease inhibitor tested in Table II (protein, UniProt P01070 25-205, looked up)
Trypsin inhibitor A: DFVLDNEGNPLENGGTYYILSDITAFGGIRAAPTGNERCPLTVVQSRNELDKGIGTIISSPYRIRFIAEGHPLSLKFDSFAVIMLCVGIPTEWSVVEDLPEGPAVKIGENKDAMDGWFRLERVSDDEFNNYKLVFCPQQAEDDKCGDIGISIDHDDGTRRLVVSKNKPLVVQFQKLDKESL
With B3 the “% Activity Remaining” value ([1]; reagent conc. 0.01 mM, 45 min at 4° C.) was 100%.
